Reference: EPA's ToxValDB 9.5 (doi:10.2903/j.efsa.2009.297r)
Values after ≈ are worked out from the molar mass of the structure shown. Values joined by “and” are separate entries in the source; they are usually repeats but may differ in a detail not shown here. Equal values may be shown once.

Key:
[1] = system: Anas platyrhynchos
[2] = reproductive
[3] = system: Oryctolagus sp.; conditions: developmental; development
[4] = system: Adalia sp.; conditions: not reported; reproduction
[5] = system: Apis mellifera; conditions: acute; dermal; mortality
[6] = system: Oncorhynchus mykiss; conditions: chronic/long-term; duration: 28 days
[7] = system: Coturnix coturnix
[8] = system: Rattus norvegicus; conditions: oral
[9] = system: Tagia sp.; conditions: mortality
[10] = system: Salmo trutta ssp. fario; conditions: acute; duration: 96 hours; mortality
[11] = system: Canidae; conditions: chronic; duration: 1 years; oral; Dog Other; body weight

O=C1c2ccccc2C(=O)N1SC(Cl)(Cl)Cl [Folpet]
NOEC ([1]; reproductive): 90 mg/kg-day
LC50 ([1]; short-term, oral, feed, mortality): > 746 mg/kg-day
NOEC [2]: 1500 mg/kg
NOAEL [3]: 10 mg/kg-day and 20 mg/kg-day
LEL [4]: 530 g/ha
LD50 [5]: > 200 µg/piece
LC50 [6]: 0.11 µg/mL (≈ 0.371 µM)
LC50 ([7]; acute, oral, diet, mortality): > 1130 mg/kg-day
LD50 ([7]; acute, oral, mortality): > 2510 mg/kg
NOEC ([7]; reproduction developmental, reproduction): 78.3 mg/kg-day
LD50 ([8]; acute, mortality): > 2000 mg/kg
NOAEL ([8]; chronic, duration: 2 years, diet, body weight): 10 mg/kg-day
LC50 ([9]; acute, duration: 14 days): > 1000 mg/kg
NOEC ([9]; chronic/long-term): 5.18 mg/kg
LC50 [10]: 0.098 µg/mL (≈ 0.33 µM)
NOAEL [11]: 10 mg/kg-day
